Results taken from PMC3145970, “Specific CLK Inhibitors from a Novel Chemotype for Regulation of Alternative Splicing” (Chemistry & Biology, 2011).
Read-outs that look alike come from different tables or passages of the source.

Tests used:
Assay in all cases: Thermal stability shift assay
Assay type in all cases: binding
[1] = molecular target: T1, FES (Homo sapiens, UniProt P07332); conditions: read-out: Tm shift FES
T1 construct: purchased in-house (SGC Oxford thermal shift panel)
Protocol: (§1) Thermal denaturation experiments were carried out in an Mx3005p real-time PCR machine (Agilent) using a protein concentration of 2 μM and an inhibitor concentration of 10 μM. Samples were buffered in 10 mM HEPES (pH 7.5), 500 mM NaCl and a 1:1000 dilution of SyproOrange (Invitrogen). The assay and data evaluation were carried out as described ([Bullock et al., 2005])

[2] = molecular target: ZAK (Homo sapiens, UniProt Q9NYL2); conditions: read-out: Tm shift ZAK
ZAK, sequence (Q9NYL2 whole entry): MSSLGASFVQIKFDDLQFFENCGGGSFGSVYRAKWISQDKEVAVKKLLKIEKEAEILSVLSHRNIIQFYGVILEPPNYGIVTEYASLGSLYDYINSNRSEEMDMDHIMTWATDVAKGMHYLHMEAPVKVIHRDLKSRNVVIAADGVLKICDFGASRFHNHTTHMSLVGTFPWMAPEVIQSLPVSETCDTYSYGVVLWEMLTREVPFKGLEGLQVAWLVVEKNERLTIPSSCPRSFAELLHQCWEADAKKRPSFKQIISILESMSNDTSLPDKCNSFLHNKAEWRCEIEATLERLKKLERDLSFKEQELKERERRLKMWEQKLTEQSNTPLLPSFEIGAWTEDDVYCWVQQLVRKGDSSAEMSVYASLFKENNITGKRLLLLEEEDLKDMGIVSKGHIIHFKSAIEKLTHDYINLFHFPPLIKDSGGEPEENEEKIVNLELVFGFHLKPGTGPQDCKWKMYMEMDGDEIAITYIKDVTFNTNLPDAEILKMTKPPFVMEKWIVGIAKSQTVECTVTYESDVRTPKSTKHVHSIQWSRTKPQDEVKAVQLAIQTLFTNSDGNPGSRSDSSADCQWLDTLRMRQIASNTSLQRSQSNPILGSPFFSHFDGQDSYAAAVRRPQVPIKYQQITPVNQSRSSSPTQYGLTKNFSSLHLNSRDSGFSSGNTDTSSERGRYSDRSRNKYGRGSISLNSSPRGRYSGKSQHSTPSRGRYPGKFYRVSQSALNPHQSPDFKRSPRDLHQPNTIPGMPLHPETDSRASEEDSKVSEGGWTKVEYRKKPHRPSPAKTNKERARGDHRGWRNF
Protocol: as §1

[3] = molecular target: YSK1 (Homo sapiens, UniProt O00506); conditions: read-out: Tm shift YSK1
YSK1, sequence (O00506 whole entry): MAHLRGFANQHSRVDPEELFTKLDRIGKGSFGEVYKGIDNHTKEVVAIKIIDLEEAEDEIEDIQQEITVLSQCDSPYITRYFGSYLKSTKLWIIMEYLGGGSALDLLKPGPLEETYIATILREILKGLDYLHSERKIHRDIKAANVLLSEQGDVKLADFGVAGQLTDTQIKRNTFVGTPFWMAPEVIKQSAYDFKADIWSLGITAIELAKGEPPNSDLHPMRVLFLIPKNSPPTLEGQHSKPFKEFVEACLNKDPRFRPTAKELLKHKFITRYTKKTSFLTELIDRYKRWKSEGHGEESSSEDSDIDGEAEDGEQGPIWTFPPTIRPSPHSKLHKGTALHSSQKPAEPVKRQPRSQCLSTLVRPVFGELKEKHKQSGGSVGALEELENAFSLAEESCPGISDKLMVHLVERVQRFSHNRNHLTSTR
Protocol: as §1

[4] = molecular target: CHK2 (Homo sapiens, UniProt O96017); conditions: read-out: Tm shift CHK2
Protocol: as §1

[5] = molecular target: T2, MAP2K6 (Homo sapiens, UniProt P52564); conditions: read-out: Tm shift MAP2K6
T2 construct: purchased in-house (SGC Oxford thermal shift panel)
T2 sequence (P52564 1-334): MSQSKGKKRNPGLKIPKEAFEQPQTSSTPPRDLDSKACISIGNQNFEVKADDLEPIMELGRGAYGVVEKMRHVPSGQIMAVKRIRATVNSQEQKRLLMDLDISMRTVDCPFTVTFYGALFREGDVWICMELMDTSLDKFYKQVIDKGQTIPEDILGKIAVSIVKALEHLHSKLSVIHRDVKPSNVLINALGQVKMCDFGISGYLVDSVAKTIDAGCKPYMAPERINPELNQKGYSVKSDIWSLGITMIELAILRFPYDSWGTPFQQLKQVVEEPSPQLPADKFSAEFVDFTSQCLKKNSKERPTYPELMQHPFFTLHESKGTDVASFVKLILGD
Protocol: as §1

[6] = molecular target: T3, PCTAIRE1 (Homo sapiens, UniProt Q00536); conditions: read-out: Tm shift PCTAIRE1
T3 construct: purchased in-house (SGC Oxford thermal shift panel)
T3 sequence (Q00536 whole entry): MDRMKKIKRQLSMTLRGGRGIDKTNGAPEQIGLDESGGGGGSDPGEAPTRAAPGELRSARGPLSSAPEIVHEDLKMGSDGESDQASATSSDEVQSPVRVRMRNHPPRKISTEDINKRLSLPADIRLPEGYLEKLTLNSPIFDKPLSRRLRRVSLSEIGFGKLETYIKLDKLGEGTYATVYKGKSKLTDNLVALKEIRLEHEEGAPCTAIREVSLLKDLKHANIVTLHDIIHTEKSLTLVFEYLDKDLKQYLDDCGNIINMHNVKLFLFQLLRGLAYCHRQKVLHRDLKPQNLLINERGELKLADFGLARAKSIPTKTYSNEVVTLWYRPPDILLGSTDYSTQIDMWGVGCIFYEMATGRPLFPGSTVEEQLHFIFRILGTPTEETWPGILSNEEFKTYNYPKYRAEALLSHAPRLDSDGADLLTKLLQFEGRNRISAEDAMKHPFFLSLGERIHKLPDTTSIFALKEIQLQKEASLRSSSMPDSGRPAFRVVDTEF
Protocol: as §1

[7] = molecular target: VRK2 (Homo sapiens, UniProt Q86Y07); conditions: read-out: Tm shift VRK2
VRK2, sequence (Q86Y07 whole entry): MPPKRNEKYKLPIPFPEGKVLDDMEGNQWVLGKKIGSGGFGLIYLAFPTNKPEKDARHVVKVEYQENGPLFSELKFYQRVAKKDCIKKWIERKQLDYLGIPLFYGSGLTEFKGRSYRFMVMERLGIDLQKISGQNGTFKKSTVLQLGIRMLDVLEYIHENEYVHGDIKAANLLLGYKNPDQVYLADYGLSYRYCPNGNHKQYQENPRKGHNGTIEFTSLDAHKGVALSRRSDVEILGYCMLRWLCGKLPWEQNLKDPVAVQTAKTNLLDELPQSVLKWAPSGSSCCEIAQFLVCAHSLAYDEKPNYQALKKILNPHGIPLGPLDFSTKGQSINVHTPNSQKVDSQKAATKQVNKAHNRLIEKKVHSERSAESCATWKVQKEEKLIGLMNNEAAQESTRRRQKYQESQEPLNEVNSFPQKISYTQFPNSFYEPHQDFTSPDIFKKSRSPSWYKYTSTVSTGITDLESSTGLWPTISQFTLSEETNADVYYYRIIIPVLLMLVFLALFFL
Protocol: as §1

[8] = molecular target: AAK1 (Homo sapiens, UniProt Q2M2I8); conditions: read-out: Tm shift AAK1
Protocol: as §1

[9] = molecular target: T4, MAP2K2 (Homo sapiens, UniProt P36507); conditions: read-out: Tm shift MAP2K2
T4 construct: purchased in-house (SGC Oxford thermal shift panel)
T4 sequence (P36507 whole entry): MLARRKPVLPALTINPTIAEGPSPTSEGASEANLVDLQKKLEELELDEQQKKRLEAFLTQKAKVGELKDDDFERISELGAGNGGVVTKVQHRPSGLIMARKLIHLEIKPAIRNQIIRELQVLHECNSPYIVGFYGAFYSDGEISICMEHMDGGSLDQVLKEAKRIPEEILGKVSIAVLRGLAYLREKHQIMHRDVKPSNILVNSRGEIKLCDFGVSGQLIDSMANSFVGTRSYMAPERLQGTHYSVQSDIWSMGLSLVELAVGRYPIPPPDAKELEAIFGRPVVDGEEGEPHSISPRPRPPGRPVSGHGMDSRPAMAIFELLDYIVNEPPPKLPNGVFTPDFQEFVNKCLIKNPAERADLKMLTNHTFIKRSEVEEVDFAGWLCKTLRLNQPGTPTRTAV
Protocol: as §1

[10] = molecular target: T5, BARK2 (Homo sapiens, UniProt P35626); conditions: read-out: Tm shift BARK2
T5 sequence (P35626 1-688): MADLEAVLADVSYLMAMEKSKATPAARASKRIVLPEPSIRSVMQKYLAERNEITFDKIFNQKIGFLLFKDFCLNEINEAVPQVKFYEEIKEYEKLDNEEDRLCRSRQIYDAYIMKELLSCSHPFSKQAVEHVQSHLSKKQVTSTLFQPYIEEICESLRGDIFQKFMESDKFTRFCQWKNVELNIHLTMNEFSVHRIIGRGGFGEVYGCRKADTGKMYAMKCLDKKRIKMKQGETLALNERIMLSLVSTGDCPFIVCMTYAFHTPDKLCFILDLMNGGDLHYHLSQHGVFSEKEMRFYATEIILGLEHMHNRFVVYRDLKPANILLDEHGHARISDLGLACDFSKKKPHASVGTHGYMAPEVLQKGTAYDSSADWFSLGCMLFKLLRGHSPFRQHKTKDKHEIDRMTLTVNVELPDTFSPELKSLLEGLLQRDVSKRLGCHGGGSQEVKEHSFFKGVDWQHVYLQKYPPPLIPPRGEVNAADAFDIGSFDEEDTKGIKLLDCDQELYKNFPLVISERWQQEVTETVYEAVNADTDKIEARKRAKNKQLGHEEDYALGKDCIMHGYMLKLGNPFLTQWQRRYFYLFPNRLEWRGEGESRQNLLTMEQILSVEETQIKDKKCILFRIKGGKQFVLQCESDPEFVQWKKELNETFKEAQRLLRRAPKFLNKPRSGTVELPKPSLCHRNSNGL
Protocol: as §1

[11] = molecular target: T6, VRK1 (Homo sapiens, UniProt Q99986); conditions: read-out: Tm shift VRK1
T6 sequence (Q99986 1-396): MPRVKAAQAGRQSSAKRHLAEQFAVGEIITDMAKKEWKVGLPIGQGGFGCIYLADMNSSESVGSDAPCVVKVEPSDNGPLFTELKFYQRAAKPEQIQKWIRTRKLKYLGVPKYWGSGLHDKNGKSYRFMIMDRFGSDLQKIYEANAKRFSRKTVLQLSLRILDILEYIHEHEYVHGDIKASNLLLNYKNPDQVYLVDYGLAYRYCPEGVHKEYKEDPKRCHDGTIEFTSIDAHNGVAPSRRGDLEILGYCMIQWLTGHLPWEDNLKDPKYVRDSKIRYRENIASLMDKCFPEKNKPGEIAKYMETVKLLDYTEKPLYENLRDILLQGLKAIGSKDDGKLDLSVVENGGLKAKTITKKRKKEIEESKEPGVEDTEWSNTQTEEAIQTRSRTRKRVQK
Protocol: as §1

[12] = molecular target: T7, NDR2 (Homo sapiens, UniProt Q9Y2H1); conditions: read-out: Tm shift NDR2
T7 construct: purchased in-house (SGC Oxford thermal shift panel)
T7 sequence (Q9Y2H1 whole entry): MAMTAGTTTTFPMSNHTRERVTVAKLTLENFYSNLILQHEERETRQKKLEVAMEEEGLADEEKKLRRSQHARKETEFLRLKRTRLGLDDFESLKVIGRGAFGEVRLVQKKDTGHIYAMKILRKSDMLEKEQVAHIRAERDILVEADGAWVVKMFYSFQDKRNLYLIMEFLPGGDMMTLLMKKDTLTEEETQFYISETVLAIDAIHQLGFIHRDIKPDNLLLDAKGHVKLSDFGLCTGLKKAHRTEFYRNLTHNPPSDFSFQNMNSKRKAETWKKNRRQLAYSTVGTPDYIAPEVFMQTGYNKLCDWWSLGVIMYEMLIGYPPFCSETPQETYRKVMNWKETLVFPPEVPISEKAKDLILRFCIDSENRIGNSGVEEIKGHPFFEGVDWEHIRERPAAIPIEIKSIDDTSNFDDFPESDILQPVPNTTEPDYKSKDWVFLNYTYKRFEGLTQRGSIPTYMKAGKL
Protocol: as §1

[13] = molecular target: RSK4 (Homo sapiens, UniProt Q9UK32); conditions: read-out: Tm shift RSK4
RSK4, sequence (Q9UK32 whole entry): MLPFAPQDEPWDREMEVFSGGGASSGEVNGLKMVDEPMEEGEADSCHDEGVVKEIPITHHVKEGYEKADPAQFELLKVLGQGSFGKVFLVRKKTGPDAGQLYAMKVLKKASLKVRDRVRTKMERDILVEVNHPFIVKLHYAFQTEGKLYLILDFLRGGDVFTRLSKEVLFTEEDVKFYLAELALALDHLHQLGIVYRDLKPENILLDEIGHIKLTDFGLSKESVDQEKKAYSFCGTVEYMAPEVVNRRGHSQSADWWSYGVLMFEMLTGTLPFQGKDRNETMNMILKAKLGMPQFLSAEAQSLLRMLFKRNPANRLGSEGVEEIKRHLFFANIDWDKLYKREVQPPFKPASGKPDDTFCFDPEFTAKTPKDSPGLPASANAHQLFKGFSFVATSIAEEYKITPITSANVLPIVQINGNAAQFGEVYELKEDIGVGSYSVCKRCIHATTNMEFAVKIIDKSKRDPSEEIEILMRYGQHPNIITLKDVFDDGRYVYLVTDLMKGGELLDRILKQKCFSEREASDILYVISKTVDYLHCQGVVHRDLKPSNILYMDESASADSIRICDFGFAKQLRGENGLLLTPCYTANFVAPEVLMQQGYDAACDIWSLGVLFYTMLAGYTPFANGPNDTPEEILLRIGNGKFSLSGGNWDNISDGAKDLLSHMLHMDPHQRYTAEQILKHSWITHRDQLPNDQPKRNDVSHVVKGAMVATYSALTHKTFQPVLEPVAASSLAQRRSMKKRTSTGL
Protocol: as §1

[14] = molecular target: T8, LOK (Homo sapiens, UniProt O94804); conditions: read-out: Tm shift LOK
T8 construct: purchased in-house (SGC Oxford thermal shift panel)
Protocol: as §1

[15] = molecular target: T9, RSK3~C (Homo sapiens, UniProt Q15349); conditions: read-out: Tm shift RSK3~C
T9 construct: RSK3~C 4.5 8.9 0.7 0.4 0.5 0.1 0.4
T9 sequence (Q15349 415-672 limits assumed): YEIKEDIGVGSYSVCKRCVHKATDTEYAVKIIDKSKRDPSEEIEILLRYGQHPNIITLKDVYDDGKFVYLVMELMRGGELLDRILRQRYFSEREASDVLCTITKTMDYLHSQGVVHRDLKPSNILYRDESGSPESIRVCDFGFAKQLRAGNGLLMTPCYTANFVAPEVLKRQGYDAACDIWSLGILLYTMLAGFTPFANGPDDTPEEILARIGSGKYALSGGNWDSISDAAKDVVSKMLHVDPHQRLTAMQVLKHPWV
Protocol: as §1

T1 sequence (P07332 whole entry): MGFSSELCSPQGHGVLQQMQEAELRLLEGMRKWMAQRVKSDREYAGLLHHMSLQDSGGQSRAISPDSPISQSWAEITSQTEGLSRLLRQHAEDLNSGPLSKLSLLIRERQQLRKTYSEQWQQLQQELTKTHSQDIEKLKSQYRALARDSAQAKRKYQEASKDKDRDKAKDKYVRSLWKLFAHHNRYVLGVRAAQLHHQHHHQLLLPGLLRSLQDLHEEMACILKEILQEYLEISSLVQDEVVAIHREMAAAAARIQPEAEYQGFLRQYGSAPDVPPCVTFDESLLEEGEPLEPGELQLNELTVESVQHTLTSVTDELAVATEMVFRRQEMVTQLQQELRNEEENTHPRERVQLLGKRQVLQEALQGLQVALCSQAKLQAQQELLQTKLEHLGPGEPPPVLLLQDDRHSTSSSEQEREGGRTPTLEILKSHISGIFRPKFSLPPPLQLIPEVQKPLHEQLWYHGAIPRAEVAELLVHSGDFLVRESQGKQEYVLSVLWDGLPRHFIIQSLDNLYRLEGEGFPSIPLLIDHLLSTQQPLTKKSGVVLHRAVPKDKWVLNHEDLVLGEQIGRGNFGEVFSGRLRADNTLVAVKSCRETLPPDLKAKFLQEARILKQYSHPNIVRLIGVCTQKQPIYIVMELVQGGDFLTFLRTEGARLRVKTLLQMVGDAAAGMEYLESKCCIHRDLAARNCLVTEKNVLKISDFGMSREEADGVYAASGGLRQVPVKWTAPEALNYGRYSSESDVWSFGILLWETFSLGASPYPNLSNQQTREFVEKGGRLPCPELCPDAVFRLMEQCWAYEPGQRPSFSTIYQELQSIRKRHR

Compound | ΔTm at 10 µM [1] | ΔTm at 10 µM [2] | ΔTm at 10 µM [3] | ΔTm at 10 µM [4] | ΔTm at 10 µM [5] | ΔTm at 10 µM ([1]; inhibitor 10 μM) | ΔTm at 10 µM ([2]; inhibitor 10 μM) | ΔTm at 10 µM ([3]; inhibitor 10 μM) | ΔTm at 10 µM ([4]; inhibitor 10 μM) | ΔTm at 10 µM ([5]; inhibitor 10 μM) | ΔTm at 10 µM ([6]; inhibitor 10 μM) | ΔTm at 10 µM ([7]; inhibitor 10 μM) | ΔTm at 10 µM ([8]; inhibitor 10 μM) | ΔTm at 10 µM ([9]; inhibitor 10 μM) | ΔTm at 10 µM ([10]; inhibitor 10 μM) | ΔTm at 10 µM ([11]; inhibitor 10 μM) | ΔTm at 10 µM ([12]; inhibitor 10 μM) | ΔTm at 10 µM ([13]; inhibitor 10 μM) | ΔTm at 10 µM ([14]; inhibitor 10 μM) | ΔTm at 10 µM ([15]; inhibitor 10 μM) | also measured
CCOC(=O)c1c(C(C#N)=CN)c2ccc(Cl)c(Cl)c2n1C (mixture of isomers) [KH-CB20, (E/Z)-Ethyl 3-(2-Amino-1-Cyanovinyl)-6,7-Dichloro-1-Methyl-1H-Indole-2-Carboxylate] | -0.3 °C | -0.1 °C | 0.1 °C | 1 °C | 0.6 °C | – | – | – | – | – | – | – | – | – | – | – | – | – | – | – | ΔTm at 10 µM [6]: 0.1 °C; ΔTm at 10 µM [7]: 0.1 °C; ΔTm at 10 µM [8]: 1.3 °C; ΔTm at 10 µM [9]: 0 °C; ΔTm at 10 µM [10]: -0.1 °C; ΔTm at 10 µM [11]: 0.2 °C; ΔTm at 10 µM [12]: -0.3 °C; ΔTm at 10 µM [13]: 1.1 °C; ΔTm at 10 µM [14]: 3 °C; ΔTm at 10 µM [15]: 0.4 °C
CCOC(=O)c1c(C(C#N)=CN(C)C)c2ccc(Cl)c(Cl)c2n1C (mixture of isomers) [compound 2, (E/Z)-Ethyl 6,7-Dichloro-3-[1-Cyano-2-(Dimethylamino)Vinyl]-1-Methyl-1H-Indole-2-Carboxylate] | – | – | – | – | – | 0 °C | -0.4 °C | 0.6 °C | 0.3 °C | 0.4 °C | 0.4 °C | 0.2 °C | 0.3 °C | -0.4 °C | 0.2 °C | 0.2 °C | -0.1 °C | -0.2 °C | -1.1 °C | 0.1 °C | –
NC1=NC(=O)/C(=C2\CCNC(=O)c3[nH]c(Br)cc32)N1 [Hymenialdisine, hymenialdisine, reference compound] | – | – | – | – | – | 0.7 °C | 1.7 °C | 1.7 °C | 5.7 °C | 0.6 °C | 0.7 °C | 0.8 °C | 2.7 °C | 2 °C | -0.3 °C | 2 °C | 0.9 °C | 1.7 °C | 4.2 °C | 4.5 °C | –
CCOC(=O)c1c(/C(C#N)=C\N)c2ccc(Cl)c(Cl)c2n1C [KH-CB19, (E)-Ethyl 3-(2-Amino-1-Cyanovinyl)-6,7-Dichloro-1-Methyl-1H-Indole-2-Carboxylate] | -0.3 °C | -0.3 °C | -0.1 °C | 0.4 °C | 0.5 °C | – | – | – | – | – | – | – | – | – | – | – | – | – | – | – | ΔTm at 10 µM [6]: 0.4 °C; ΔTm at 10 µM [7]: -0.1 °C; ΔTm at 10 µM [8]: 1.3 °C; ΔTm at 10 µM [9]: 0.1 °C; ΔTm at 10 µM [10]: -0.4 °C; ΔTm at 10 µM [11]: 0 °C; ΔTm at 10 µM [12]: -0.2 °C; ΔTm at 10 µM [13]: 1.6 °C; ΔTm at 10 µM [14]: -0.8 °C; ΔTm at 10 µM [15]: 0.7 °C
Cn1c2c(Cl)c(Cl)ccc2c2c(C#N)c[nH]c(=O)c21 [compound 3, 7,8-Dichloro-9-Methyl-1-Oxo-2,9-Dihydro-1H-Pyrido[3,4-b]Indole-4-Carbonitrile] | – | – | – | – | – | 0 °C | -0.2 °C | 0.2 °C | 0.5 °C | 0.1 °C | 0.4 °C | 0.1 °C | 1.4 °C | 0.1 °C | 0.3 °C | -0.4 °C | 0 °C | 1.3 °C | -0.7 °C | 0.5 °C | –
